In patent US20260217711A1, “TRIAZOLOPYRIDINYL ETHER LINKED COMPOUNDS AS KINASE INHIBITORS” (Bristol-Myers Squibb Company, priority 2023, published 2026):
Where two headings read alike, the source gives them in different places.

Tested on: MLKL phosphorylation (pMLKL) in HT29-L23 cells
Assay: MLKL Phosphorylation High-Content Assay
Assay type: cell-based
Settings: necroptosis induced with human TNFα, SMAC mimetic and Z-VAD, 6 h, read-out: LE pMLKL HC IC50
Description: Following 6 h incubation at 37° C. […] MLKL phosphorylation was detected using anti-MLKL (phospho […]) antibody (Abcam #ab187091) (1:1000 dilution in Blocking Buffer [PBS supplemented with 0.1% BSA]) with ON incubation at 4° C. […] Following another three cycles of washes in PBS, the microplates were sealed, and cellular images were acquired in the Cellomics ArrayScan VTI high-content imager equipped with an X1 camera. […] The image sets were analyzed using the Compartmental Analysis Bioapplication software (Cellomics). The level of MLKL phosphorylation was quantified as […].

Structure (SMILES)	IC50 [nM]	IC50 (Homo sapiens) [nM]
CC(O)(c1ccccc1)C(F)(F)CCOc1c(F)ccc(-c2ccn3nc(N)nc3c2F)c1F (single isomer, unassigned) [Example 37, 5-(3-(2-amino-8-fluoro-[1,2,4]triazolo[1,5-a]pyridin-7-yl)-2,6-difluorophenoxy)-3,3-difluoro-2-phenylpentan-2-ol]	110	–
CC(O)(c1ccccc1)C(F)(F)CCOc1c(F)ccc(-c2ccn3nc(N)nc3c2)c1F (single isomer, unassigned) [Example 39, 5-(3-(2-amino-[1,2,4]triazolo[1,5-a]pyridin-7-yl)-2,6-difluorophenoxy)-3,3-difluoro-2-phenylpentan-2-ol]	130	–
CC(O)(c1ccccc1)C(F)(F)CCOc1c(Cl)ccc(-c2ccn3nc(N)nc3c2)c1F (single isomer, unassigned) [Example 41, 5-(3-(2-amino-[1,2,4]triazolo[1,5-a]pyridin-7-yl)-6-chloro-2-fluorophenoxy)-3,3-difluoro-2-phenylpentan-2-ol]	0.4	–
CC(O)(c1ccccc1)C(F)(F)CCOc1c(Cl)ccc(-c2ccn3nc(N)nc3c2)c1F (single isomer, unassigned) [Example 42, 5-(3-(2-amino-[1,2,4]triazolo[1,5-a]pyridin-7-yl)-6-chloro-2-fluorophenoxy)-3,3-difluoro-2-phenylpentan-2-ol]	17	–
CC(O)(c1ccc(Cl)cc1)C(F)(F)CCOc1c(Cl)ccc(-c2ccn3nc(N)nc3c2)c1F (single isomer, unassigned) [Example 43, 5-(3-(2-amino-[1,2,4]triazolo[1,5-a]pyridin-7-yl)-6-chloro-2-fluorophenoxy)-2-(4-chlorophenyl)-3,3-difluoropentan-2-ol]	330	–
CC(O)(c1ccc(Cl)cc1)C(F)(F)CCOc1c(Cl)ccc(-c2ccn3nc(N)nc3c2)c1F (single isomer, unassigned) [Example 44, 5-(3-(2-amino-[1,2,4]triazolo[1,5-a]pyridin-7-yl)-6-chloro-2-fluorophenoxy)-2-(4-chlorophenyl)-3,3-difluoropentan-2-ol]	0.6	–
CC(O)(c1ccc(Cl)cc1)C(F)(F)CCOc1c(F)ccc(-c2ccn3nc(N)nc3c2)c1F (single isomer, unassigned) [Example 45, 5-(3-(2-amino-[1,2,4]triazolo[1,5-a]pyridin-7-yl)-2,6-difluorophenoxy)-2-(4-chlorophenyl)-3,3-difluoropentan-2-ol]	80	–
CC(O)(c1ccc(Cl)cc1)C(F)(F)CCOc1c(F)ccc(-c2ccn3nc(N)nc3c2)c1F (single isomer, unassigned) [Example 46, 5-(3-(2-amino-[1,2,4]triazolo[1,5-a]pyridin-7-yl)-2,6-difluorophenoxy)-2-(4-chlorophenyl)-3,3-difluoropentan-2-ol]	0.4	–
CC(O)(c1ccc(Cl)cc1)C(F)(F)CCOc1cccc(-c2ccn3nc(N)nc3c2)c1F (single isomer, unassigned) [Example 47, 5-(3-(2-amino-[1,2,4]triazolo[1,5-a]pyridin-7-yl)-2-fluorophenoxy)-2-(4-chlorophenyl)-3,3-difluoropentan-2-ol]	23	–
CC(O)(c1ccc(Cl)cc1)C(F)(F)CCOc1cccc(-c2ccn3nc(N)nc3c2)c1F (single isomer, unassigned) [Example 48, 5-(3-(2-amino-[1,2,4]triazolo[1,5-a]pyridin-7-yl)-2-fluorophenoxy)-2-(4-chlorophenyl)-3,3-difluoropentan-2-ol]	0.1	–
CC(O)(c1ccc(F)cc1)C(F)(F)CCOc1c(Cl)ccc(-c2ccn3nc(N)nc3c2)c1F (single isomer, unassigned) [Example 51, 5-(3-(2-amino-[1,2,4]triazolo[1,5-a]pyridin-7-yl)-6-chloro-2-fluorophenoxy)-3,3-difluoro-2-(4-fluorophenyl)pentan-2-ol]	150	–
Nc1nc2cc(-c3ccc(F)c(OCCC(F)(F)C(O)c4ccc(F)cc4)c3)ccn2n1 (single isomer, unassigned) [Example 53, 4-(5-(2-amino-[1,2,4]triazolo[1,5-a]pyridin-7-yl)-2-fluorophenoxy)-2,2-difluoro-1-(4-fluorophenyl)butan-1-ol]	1.5	–
Nc1nc2cc(-c3ccc(F)c(OCCC(F)(F)C(O)c4ccc(F)cc4)c3)ccn2n1 (single isomer, unassigned) [Example 54, 4-(5-(2-amino-[1,2,4]triazolo[1,5-a]pyridin-7-yl)-2-fluorophenoxy)-2,2-difluoro-1-(4-fluorophenyl)butan-1-ol]	32	–
Nc1nc2cc(-c3ccc(F)c(OCCC(F)(F)C(O)c4ccc(F)cc4)c3F)ccn2n1 (single isomer, unassigned) [Example 55, 4-(3-(2-amino-[1,2,4]triazolo[1,5-a]pyridin-7-yl)-2,6-difluorophenoxy)-2,2-difluoro-1-(4-fluorophenyl)butan-1-ol]	0.3	–
Nc1nc2cc(-c3ccc(F)c(OCCC(F)(F)C(O)c4ccc(F)cc4)c3F)ccn2n1 (single isomer, unassigned) [Example 56, 4-(3-(2-amino-[1,2,4]triazolo[1,5-a]pyridin-7-yl)-2,6-difluorophenoxy)-2,2-difluoro-1-(4-fluorophenyl)butan-1-ol]	4	–
CC(O)(c1ccc(F)cc1)C(F)(F)CCOc1cc(-c2ccn3nc(N)nc3c2)ccc1F (single isomer, unassigned) [Example 57, 5-(5-(2-amino-[1,2,4]triazolo[1,5-a]pyridin-7-yl)-2-fluorophenoxy)-3,3-difluoro-2-(4-fluorophenyl)pentan-2-ol]	130	–
CC(O)(c1ccc(F)cc1)C(F)(F)CCOc1cc(-c2ccn3nc(N)nc3c2)ccc1F (single isomer, unassigned) [Example 58, 5-(5-(2-amino-[1,2,4]triazolo[1,5-a]pyridin-7-yl)-2-fluorophenoxy)-3,3-difluoro-2-(4-fluorophenyl)pentan-2-ol]	5	–
Nc1nc2cc(-c3ccc(Cl)c(OCCC(F)(F)C(O)c4ccc(F)cc4)c3F)ccn2n1 (single isomer, unassigned) [Example 59, 4-(3-(2-amino-[1,2,4]triazolo[1,5-a]pyridin-7-yl)-6-chloro-2-fluorophenoxy)-2,2-difluoro-1-(4-fluorophenyl)butan-1-ol]	2	–
Nc1nc2cc(-c3ccc(Cl)c(OCCC(F)(F)C(O)c4ccc(F)cc4)c3F)ccn2n1 (single isomer, unassigned) [Example 60, 4-(3-(2-amino-[1,2,4]triazolo[1,5-a]pyridin-7-yl)-6-chloro-2-fluorophenoxy)-2,2-difluoro-1-(4-fluorophenyl)butan-1-ol]	5	–
Nc1nc2cc(-c3cccc(OCCC(F)(F)C(N)c4ccc(F)cc4)c3F)ccn2n1 (single isomer, unassigned) [Example 61, 7-(3-(4-amino-3,3-difluoro-4-(4-fluorophenyl)butoxy)-2-fluorophenyl)-[1,2,4]triazolo[1,5-a]pyridin-2-amine]	0.6	–
Nc1nc2cc(-c3cccc(OCCC(F)(F)C(N)c4ccc(F)cc4)c3F)ccn2n1 (single isomer, unassigned) [Example 62, 7-(3-(4-amino-3,3-difluoro-4-(4-fluorophenyl)butoxy)-2-fluorophenyl)-[1,2,4]triazolo[1,5-a]pyridin-2-amine]	6	–
Cc1ccc(-c2ccn3nc(N)nc3c2)c(F)c1OCCC(F)(F)C(C)(O)c1ccc(F)cc1 (single isomer, unassigned) [Example 63, 5-(3-(2-amino-[1,2,4]triazolo[1,5-a]pyridin-7-yl)-2-fluoro-6-methylphenoxy)-3,3-difluoro-2-(4-fluorophenyl)pentan-2-ol]	8	–
Cc1ccc(-c2ccn3nc(N)nc3c2)c(F)c1OCCC(F)(F)C(C)(O)c1ccc(F)cc1 (single isomer, unassigned) [Example 64, 5-(3-(2-amino-[1,2,4]triazolo[1,5-a]pyridin-7-yl)-2-fluoro-6-methylphenoxy)-3,3-difluoro-2-(4-fluorophenyl)pentan-2-ol]	0.1	–
CC(O)(c1ccccc1)C(F)(F)CCOc1cccc(-c2ccn3nc(N)nc3c2)c1F (single isomer, unassigned) [Example 67, 5-(3-(2-amino-[1,2,4]triazolo[1,5-a]pyridin-7-yl)-2-fluorophenoxy)-3,3-difluoro-2-phenylpentan-2-ol]	4	–
CC(O)(c1ccccc1)C(F)(F)CCOc1cccc(-c2ccn3nc(N)nc3c2)c1F (single isomer, unassigned) [Example 68, 5-(3-(2-amino-[1,2,4]triazolo[1,5-a]pyridin-7-yl)-2-fluorophenoxy)-3,3-difluoro-2-phenylpentan-2-ol]	–	0.1
Nc1nc2cc(-c3cccc(OCCC(F)(F)C(O)c4ccc(F)cc4)c3F)ccn2n1 (single isomer, unassigned) [Example 71, 4-(3-(2-amino-[1,2,4]triazolo[1,5-a]pyridin-7-yl)-2-fluorophenoxy)-2,2-difluoro-1-(4-fluorophenyl)butan-1-ol]	–	0.6
Nc1nc2cc(-c3cccc(OCCC(F)(F)C(O)c4ccc(F)cc4)c3F)ccn2n1 (single isomer, unassigned) [Example 72, 4-(3-(2-amino-[1,2,4]triazolo[1,5-a]pyridin-7-yl)-2-fluorophenoxy)-2,2-difluoro-1-(4-fluorophenyl)butan-1-ol]	1	–
CC(O)(c1ccc(F)cc1)C(F)(F)CCOc1c(F)ccc(-c2ccc3nc(N)nn3c2)c1F (single isomer, unassigned) [Example 75, 5-(3-(2-amino-[1,2,4]triazolo[1,5-a]pyridin-6-yl)-2,6-difluorophenoxy)-3,3-difluoro-2-(4-fluorophenyl)pentan-2-ol]	200	–
